# Measurements as given in ChEMBL document CHEMBL1240356, “Efficacy profiles of daptomycin for treatment of invasive and noninvasive pulmonary infections with Streptococcus pneumoniae” (2010).
# Activity calls are given as the source filed them. The calls are words filed in the database; no cut-off is given here.
# How the values were obtained:
# Streptococcus pneumoniae [1] = assay: Antibacterial activity against 1.5 x 10^7 CFU Streptococcus pneumoniae serotype 2 infected in therapeutic C57BL/6 mouse model assessed as increase in serum compound level at 6 mg/kg, ip measured on day 3 post infection; type: functional, organism-based; set-up: dose 6 mg/kg
# Streptococcus pneumoniae [2] = assay: Antibacterial activity against high dose 1.5 x 10^7 CFU Streptococcus pneumoniae serotype 2 infected in semitherapeutic C57BL/6 mouse model assessed as reduction of bacteremiar at 6 mg/kg, ip measured after 3 days post infection; type: functional, organism-based; set-up: dose 6 mg/kg
# Streptococcus pneumoniae [3] = assay: Antibacterial activity against low dose 5 x 10^6 CFU Streptococcus pneumoniae serotype 19 infected in semitherapeutic C57BL/6 mouse model assessed as bacteremic mouse at 6 mg/kg, ip measured after 10 day post infection; type: functional, organism-based; set-up: dose 6 mg/kg
# Streptococcus pneumoniae [4] = assay: Antibacterial activity against high dose 1.5 x 10^7 CFU Streptococcus pneumoniae serotype 19 infected in semitherapeutic C57BL/6 mouse model assessed as bacterial count in lung at 6 mg/kg, ip measured after 2 days post infection; type: functional; settings: route intraperitoneal
# Streptococcus pneumoniae [5] = assay: Antibacterial activity against high dose 1.5 x 10^7 CFU Streptococcus pneumoniae serotype 19 infected in semitherapeutic C57BL/6 mouse model assessed as reduction of bacteremia at 6 mg/kg, ip measured after 3 days post infection; type: functional, organism-based; set-up: dose 6 mg/kg
# Streptococcus pneumoniae [6] = assay: Antibacterial activity against high dose 1.5 x 10^7 CFU Streptococcus pneumoniae serotype 2 infected in semitherapeutic C57BL/6 mouse model assessed as bacterial count in spleen at 6 mg/kg, ip measured after 2 days post infection; type: functional; settings: route intraperitoneal
# Streptococcus pneumoniae [7] = assay: Antibacterial activity against high dose 1.5 x 10^7 CFU Streptococcus pneumoniae serotype 2 infected in therapeutic C57BL/6 mouse model assessed as bacterial count in blood at 6 mg/kg, ip measured after 3 days post infection; type: functional; settings: route intraperitoneal
# Streptococcus pneumoniae [8] = assay: Antibacterial activity against low dose 5 x 10^6 CFU Streptococcus pneumoniae serotype 2 infected in semitherapeutic C57BL/6 mouse model assessed as reduction of bacteremia at 6 mg/kg, ip measured after 3 dayss post infection; type: functional, organism-based; set-up: dose 6 mg/kg
# Streptococcus pneumoniae [9] = assay: Antibacterial activity against 1.5 x 10^7 CFU Streptococcus pneumoniae serotype 19 infected in therapeutic C57BL/6 mouse model assessed as effect on lung permeability at 6 mg/kg, ip measured on day 3 post infection; type: functional, organism-based; set-up: dose 6 mg/kg
# Streptococcus pneumoniae [10] = assay: Antibacterial activity against high dose 1.5 x 10^7 CFU Streptococcus pneumoniae serotype 2 infected in semitherapeutic C57BL/6 mouse model assessed as bacterial count in lung at 6 mg/kg, ip measured after 2 days post infection; type: functional; settings: route intraperitoneal
# Streptococcus pneumoniae [11] = assay: Antibacterial activity against low dose 5 x 10^6 CFU Streptococcus pneumoniae serotype 2 infected in semitherapeutic C57BL/6 mouse model assessed as reduction of bacteremia at 6 mg/kg, ip measured after 10 day post infection; type: functional, organism-based; set-up: dose 6 mg/kg
# Streptococcus pneumoniae [12] = assay: Antibacterial activity against 1.5 x 10^7 CFU Streptococcus pneumoniae serotype 2 infected in therapeutic C57BL/6 mouse model assessed as increase in compound level in BALF at 6 mg/kg, ip measured on day 3 post infection; type: functional, organism-based; set-up: dose 6 mg/kg
# Streptococcus pneumoniae [13] = assay: Antibacterial activity against high dose 1.5 x 10^7 CFU Streptococcus pneumoniae serotype 19 infected in semitherapeutic C57BL/6 mouse model assessed as reduction of bacteremia at 6 mg/kg, ip measured after 2 days post infection; type: functional, organism-based; set-up: dose 6 mg/kg
# Streptococcus pneumoniae [14] = assay: Antibacterial activity against high dose 1.5 x 10^7 CFU Streptococcus pneumoniae serotype 19 infected in semitherapeutic C57BL/6 mouse model assessed as reduction of bacteremia at 6 mg/kg, ip measured after 1 day post infection; type: functional, organism-based; set-up: dose 6 mg/kg
# Streptococcus pneumoniae [15] = assay: Antibacterial activity against low dose 5 x 10^6 CFU Streptococcus pneumoniae serotype 19 infected in semitherapeutic C57BL/6 mouse model assessed as bacteremic mouse at 6 mg/kg, ip measured after 3 days post infection; type: functional, organism-based; set-up: dose 6 mg/kg
# Streptococcus pneumoniae [16] = assay: Antibacterial activity against high dose 1.5 x 10^7 CFU Streptococcus pneumoniae serotype 2 infected in therapeutic C57BL/6 mouse model assessed as bacterial count in lung at 6 mg/kg, ip measured after 3 days post infection; type: functional; settings: route intraperitoneal
# Streptococcus pneumoniae [17] = assay: Antibacterial activity against 5 x 10^6 CFU Streptococcus pneumoniae serotype 2 infected in semitherapeutic C57BL/6 mouse model assessed as bacterial count in lung at 6 mg/kg, ip measured after 1 day post infection; type: functional; settings: route intraperitoneal
# Streptococcus pneumoniae [18] = assay: Antibacterial activity against high dose 1.5 x 10^7 CFU Streptococcus pneumoniae serotype 2 infected in semitherapeutic C57BL/6 mouse model assessed as bacterial count in lung at 6 mg/kg, ip measured after 3 days post infection; type: functional; settings: route intraperitoneal
# Streptococcus pneumoniae [19] = assay: Antibacterial activity against high dose 1.5 x 10^7 CFU Streptococcus pneumoniae serotype 2 infected in semitherapeutic C57BL/6 mouse model assessed as bacterial count in blood at 6 mg/kg, ip measured after 2 days post infection; type: functional; settings: route intraperitoneal
# Streptococcus pneumoniae [20] = assay: Antibacterial activity against 5 x 10^6 CFU Streptococcus pneumoniae serotype 2 infected in semitherapeutic C57BL/6 mouse model assessed as bacterial count in spleen at 6 mg/kg, ip measured after 1 day post infection; type: functional; settings: route intraperitoneal
# Streptococcus pneumoniae [21] = assay: Antibacterial activity against 1.5 x 10^7 CFU Streptococcus pneumoniae serotype 2 infected in therapeutic C57BL/6 mouse model assessed as survival rate at 20 mg/kg, ip qd beginning 2 days post infection measured after 3 days post infection; type: functional; settings: route intraperitoneal
# Streptococcus pneumoniae [22] = assay: Antibacterial activity against high dose 1.5 x 10^7 CFU Streptococcus pneumoniae serotype 19 infected in semitherapeutic C57BL/6 mouse model assessed as bacterial count in lung at 6 mg/kg, ip measured after 3 days post infection; type: functional; settings: route intraperitoneal
# Streptococcus pneumoniae [23] = assay: Antibacterial activity against low dose 5 x 10^6 CFU Streptococcus pneumoniae serotype 2 infected in semitherapeutic C57BL/6 mouse model at 6 mg/kg, ip over a period of 14 days; type: functional, organism-based; set-up: dose 6 mg/kg
# Streptococcus pneumoniae [24] = assay: Antibacterial activity against high dose 1.5 x 10^7 CFU Streptococcus pneumoniae serotype 2 infected in semitherapeutic C57BL/6 mouse model assessed as bacterial count in blood at 6 mg/kg, ip measured after 1 day post infection; type: functional; settings: route intraperitoneal
# Streptococcus pneumoniae [25] = assay: Antibacterial activity against 5 x 10^6 CFU Streptococcus pneumoniae serotype 2 infected in semitherapeutic C57BL/6 mouse model assessed as reduction of bacteremia at 6 mg/kg, ip measured after 2 days post infection; type: functional, organism-based; set-up: dose 6 mg/kg
# Streptococcus pneumoniae [26] = assay: Antibacterial activity against low dose 5 x 10^6 CFU Streptococcus pneumoniae serotype 19 infected in semitherapeutic C57BL/6 mouse model assessed as bacterial count in lung at 6 mg/kg, ip measured after 1 day post infection; type: functional; settings: route intraperitoneal
# Streptococcus pneumoniae [27] = assay: Antibacterial activity against low dose 5 x 10^6 CFU Streptococcus pneumoniae serotype 19 infected in semitherapeutic C57BL/6 mouse model assessed as bacteremic mouse at 6 mg/kg, ip measured after 5 day post infection; type: functional, organism-based; set-up: dose 6 mg/kg
# Streptococcus pneumoniae [28] = assay: Antibacterial activity against high dose 1.5 x 10^7 CFU Streptococcus pneumoniae serotype 2 infected in semitherapeutic C57BL/6 mouse model assessed as reduction of bacteremia at 6 mg/kg, ip measured after 5 day post infection; type: functional, organism-based; set-up: dose 6 mg/kg
# Streptococcus pneumoniae [29] = assay: Antibacterial activity against 1.5 x 10^7 CFU Streptococcus pneumoniae serotype 19 infected in therapeutic C57BL/6 mouse model assessed as effect on leukocytes infiltration in BALF at 6 mg/kg, ip measured on day 3 post infection; type: functional, organism-based; set-up: dose 6 mg/kg
# Streptococcus pneumoniae [30] = assay: Antibacterial activity against high dose 1.5 x 10^7 CFU Streptococcus pneumoniae serotype 2 infected in semitherapeutic C57BL/6 mouse model assessed as bacterial count in lung at 6 mg/kg, ip measured after 1 day post infection; type: functional; settings: route intraperitoneal
smiles,measurement,setting,value
CCCCCCCCCC(=O)N[C@@H](Cc1c[nH]c2ccccc12)C(=O)N[C@H](CC(N)=O)C(=O)N[C@@H](CC(=O)O)C(=O)N[C@@H]1C(=O)NCC(=O)N[C@@H](CCCN)C(=O)N[C@@H](CC(=O)O)C(=O)N[C@H](C)C(=O)N[C@@H](CC(=O)O)C(=O)NCC(=O)N[C@H](CO)C(=O)N[C@@H]([C@H](C)CC(=O)O)C(=O)N[C@@H](CC(=O)c2ccccc2N)C(=O)O[C@@H]1C,Activity,Streptococcus pneumoniae [1],Active
same,Activity,Streptococcus pneumoniae [2],Active
same,Activity,Streptococcus pneumoniae [3],Active
same,log10cfu,Streptococcus pneumoniae [4],6.2
same,Activity,Streptococcus pneumoniae [5],Active
same,log10cfu,Streptococcus pneumoniae [6],0.4
same,log10cfu,Streptococcus pneumoniae [7],2.3
same,Activity,Streptococcus pneumoniae [8],Active
same,Activity,Streptococcus pneumoniae [9],Active
same,log10cfu,Streptococcus pneumoniae [10],4.2
same,Activity,Streptococcus pneumoniae [11],Active
same,Activity,Streptococcus pneumoniae [12],inactive
same,Activity,Streptococcus pneumoniae [13],Active
same,Activity,Streptococcus pneumoniae [14],Active
same,Activity,Streptococcus pneumoniae [15],Active
same,log10cfu,Streptococcus pneumoniae [16],5.5
same,log10cfu,Streptococcus pneumoniae [17],5.4
same,log10cfu,Streptococcus pneumoniae [18],3.5
same,log10cfu,Streptococcus pneumoniae [19],0.1
same,log10cfu,Streptococcus pneumoniae [20],2.2
same,Activity,Streptococcus pneumoniae [21],60%
same,log10cfu,Streptococcus pneumoniae [22],7.1
same,Activity,Streptococcus pneumoniae [23],Active
same,log10cfu,Streptococcus pneumoniae [24],2.6
same,Activity,Streptococcus pneumoniae [25],Active
same,log10cfu,Streptococcus pneumoniae [26],6.3
same,Activity,Streptococcus pneumoniae [27],Active
same,Activity,Streptococcus pneumoniae [28],Active
same,Activity,Streptococcus pneumoniae [29],Active
same,log10cfu,Streptococcus pneumoniae [30],6
